Laboratory results published in patent US11466023B2, “Combination of a Mcl-1 inhibitor and a standard of care treatment for hematologic cancers, uses and pharmaceutical compositions thereof” (LES LABORATOIRES SERVIER, priority 2017, dated 2022).
Like-named read-outs stand apart in the source and are kept apart here.

What was measured:
[1] = tested on: normal human CD34+ progenitor cells; details: 10 nM
GDM-1 AML cell line = assay: Single agent cell viability (CellTiterGlo); assay type: cell-based; details: Homo sapiens, 72 h; GDM-1, single agent, 3 days incubation, CellTiterGlo; read-out: IC50
Description: (§1) Cell lines were cultured at 37° C. in a humidified atmosphere containing 5% CO2 and expanded in T-150 flasks. […] In order to analyse the activity of the compounds as single agents, cells were seeded and treated with nine 2-fold serial dilutions of each compound dispensed individually directly into the cell assay plates. […] All the experiments were performed in triplicates. Luminescence was quantified on a multipurpose plate reader. Single agent IC50s were calculated using standard four-parametric curve fitting.

KG1 AML cell line = assay: Single agent cell viability (CellTiterGlo); assay type: cell-based; details: 72 h; KG1, single agent, 3 days incubation, CellTiterGlo; read-out: IC50
Description: as §1

ML-2 AML cell line = assay: Single agent cell viability (CellTiterGlo); assay type: cell-based; details: 72 h; ML-2, single agent, 3 days incubation, CellTiterGlo; read-out: IC50
Description: as §1

Kasumi-1 AML cell line = assay: Single agent cell viability (CellTiterGlo); assay type: cell-based; details: Homo sapiens, 72 h; Kasumi-1, single agent, 3 days incubation, CellTiterGlo; read-out: IC50
Description: as §1

THP-1 AML cell line = assay: Single agent cell viability (CellTiterGlo); assay type: cell-based; details: Homo sapiens, 72 h; THP-1, single agent, 3 days incubation, CellTiterGlo; read-out: IC50
Description: as §1

MV4; 11 AML cell line = assay: Single agent cell viability (CellTiterGlo); assay type: cell-based; details: Homo sapiens, 72 h; MV4; 11, single agent, 3 days incubation, CellTiterGlo; read-out: IC50
Description: as §1

EOL-1 AML cell line = assay: Single agent cell viability (CellTiterGlo); assay type: cell-based; details: Homo sapiens, EOL1, 72 h; EOL-1, single agent, 3 days incubation, CellTiterGlo; read-out: IC50
Description: as §1

MOLM-13 AML cell line = assay: Single agent cell viability (CellTiterGlo); assay type: cell-based; details: Homo sapiens, 72 h; MOLM-13, single agent, 3 days incubation, CellTiterGlo; read-out: IC50
Description: as §1

OCI-AML3 AML cell line = assay: Single agent cell viability (CellTiterGlo); assay type: cell-based; details: Homo sapiens, OCI-AML-3, 72 h; OCI-AML3, single agent, 3 days incubation, CellTiterGlo; read-out: IC50
Description: as §1

KG1a AML cell line = assay: Single agent cell viability (CellTiterGlo); assay type: cell-based; details: Homo sapiens, KG-1a, 72 h; KG1a, single agent, 3 days incubation, CellTiterGlo; read-out: IC50
Description: as §1

HL-60 AML cell line = assay: Single agent cell viability (CellTiterGlo); assay type: cell-based; details: Homo sapiens, 72 h; HL-60, single agent, 3 days incubation, CellTiterGlo; read-out: IC50
Description: as §1

Nomo-1 AML cell line = assay: Single agent cell viability (CellTiterGlo); assay type: cell-based; details: Homo sapiens, 72 h; Nomo-1, single agent, 3 days incubation, CellTiterGlo; read-out: IC50
Description: as §1

PL-21 AML cell line = assay: Single agent cell viability (CellTiterGlo); assay type: cell-based; details: 72 h; PL-21, single agent, 3 days incubation, CellTiterGlo; read-out: IC50
Description: as §1

[2] = tested on: mononuclear cells from ALL patient samples; assay: Cell viability assay (sytox blue flow cytometry) in primary ALL samples; assay type: cell-based; details: Homo sapiens, 48 h, combination at 1:1 ratio, read-out: 50% lethal concentration (LC50)
Description: Bone marrow or peripheral blood samples from patients with ALL were collected after informed consent in accordance with guidelines approved by The Alfred Hospital Human research ethics committee. Mononuclear cells were isolated by Ficoll-Paque (GE Healthcare, Australia) density-gradient centrifugation, followed by red cell depletion in ammonium chloride (NH4Cl) lysis buffer at 37° C. for 10 minutes. Cells were then re-suspended in phosphate-buffered saline containing 2% Fetal Bovine serum (Sigma, Australia). Mononuclear cells were then suspended in RPMI-1640 (GIBCO, Australia) medium containing penicillin and streptomycin (GIBCO) and heat inactivated fetal bovine serum 15% (Sigma).
Freshly purified mononuclear cells from ALL patient samples were adjusted to a concentration of 2.5×10^5/ml and 100 μL of cells aliquoted per well into 96 well plates (Sigma). Cells were then treated with indicated drugs over a […] concentration range from 1 nM to 10 μM for 48 hours. For combinations assays, drugs were added at a 1:1 ratio from 1 nM to 10 μM and incubated at 37° C. 5% CO2. Cells were then stained with sytox blue nucleic acid stain (Invitrogen, Australia) and fluorescence measured by flow cytometric analysis using the LSR-II Fortessa (Becton Dickinson, Australia). FACSDiva software was used for data collection, and FlowJo software for analysis. Blast cells were gated using forward and side scatter properties. Viable cells excluding sytox blue were determined at 6 concentrations for each drug and the 50% lethal concentration (LC50, in μM) determined.

primary AML samples = primary AML samples (leukemic progenitor cells), 10 nM

In the case of `Nc1ccn([C@@H]2O[C@H](CO)[C@@H](O)[C@@H]2O)c(=O)n1` [Cytarabine, cytarabine], the clonogenic growth [1] is reported as “toxic”, the IC50 (GDM-1 AML cell line) is reported as 30 nM and the IC50 (KG1 AML cell line) is reported as 170 nM. The IC50 (ML-2 AML cell line) was 30 nM, the IC50 (Kasumi-1 AML cell line) was 1020 nM and the IC50 (THP-1 AML cell line) was > 2000 nM. It also gave an IC50 (MV4; 11 AML cell line) of 140 nM, an IC50 (EOL-1 AML cell line) of 90 nM and an IC50 (MOLM-13 AML cell line) of 190 nM. For the same compound, the IC50 (OCI-AML3 AML cell line) was > 2000 nM, the IC50 (KG1a AML cell line) was 240 nM and the IC50 (HL-60 AML cell line) was 740 nM. The IC50 (Nomo-1 AML cell line) was 990 nM, the IC50 (PL-21 AML cell line) was 100 nM and the CC50 ([2]; ALL patient sample 01-046-2018, 48 hours) was > 100000 nM. For the same compound, the CC50 ([2]; ALL patient sample AH6031524, 48 hours) was 51600 nM, the CC50 ([2]; ALL patient sample AH6184311, 48 hours) was 88000 nM and the CC50 ([2]; ALL patient sample AH6196680, 48 hours) was > 100000 nM. The CC50 ([2]; ALL patient sample AH6198549, 48 hours) was 10600 nM, the CC50 ([2]; ALL patient sample AH6258921, 48 hours) was > 100000 nM and the CC50 ([2]; ALL patient sample AH7008157, 48 hours) was > 100000 nM. The CC50 ([2]; ALL patient sample AH7024700, 48 hours) was 35900 nM, the CC50 ([2]; ALL patient sample AH7104727, 48 hours) was > 100000 nM and the CC50 ([2]; ALL patient sample TB 10-05-02, 48 hours) was > 100000 nM. For the same compound, the CC50 ([2]; ALL patient sample TB 11-08-06, 48 hours) was > 100000 nM, the CC50 ([2]; ALL patient sample TB 15-06-05, 48 hours) was > 100000 nM and the CC50 ([2]; ALL patient sample TB 17-06-18, 48 hours) was > 100000 nM. The CC50 ([2]; ALL patient sample TB120803, 48 hours) was > 100000 nM, the CC50 ([2]; ALL patient sample TB151005, 48 hours) was > 100000 nM and the clonogenic growth (primary AML samples) was “toxic”.
